Assay results reported in patent US11360104B2, “Microbial-based biosensors” (TRUSTEES OF BOSTON UNIVERSITY, priority 2017, dated 2022).
Like-named read-outs stand apart in the source and are kept apart here.

How the values were obtained:
[1] = test system: P. simplex bacteria (steroid responsive genome island, SRGI); test: RNA-Seq screen of steroid treated P. simplex against solvent controls; format: cell-based, Pimelobacter simplex; conditions: Log2 fold change vs solvent control
From the text: (§1) In order to identify steroid binding Transcription Factors, a whole transcriptome RNA sequencing (RNA-Seq) screen was developed (FIG. 7). The growth of Pimelobacter simplex bacteria was profiled with respect to the starting inoculation density, solvent toxicity, and the addition of steroids (FIG. 16). […] P. simplex bacteria were screened against the steroid solvents ethanol (EtOH) and dimethyl sulfoxide (DMSO). […] Steroid growth curves were similarly performed using a starting OD of 0.005 and constant solvent dosing with titrations of steroids. […] P. simplex bacteria were grown in the presence of 700 μM testosterone, 21.88 μM progesterone, 87.50 μM estrone, 21.88 μM 17β-estradiol, 21.88 μM hydrocortisone, or 175.00 μM aldosterone concentrations were selected for comparison.
(§2) Using accession gene tags, genes were annotated for steroid relevant enzymes or transcription factors. […] Allosteric TF binding sequences are often palindromes and typically located near the start of its gene location in an intergenic space. With such a design, the allosteric TF can regulate itself or the open reading frame (ORF) near it in response to its effector molecule. […] Once identified, the TFs were cloned and recombinantly expressed for thorough characterization.
(§3) Cells were grown in 6 mL volumes of media at the OD, solvent, and steroid concentrations found from the growth curves in 14 mL polypropylene round-bottom tubes (Corning #352059) in technical duplicate. The same controls as in the steroid exposure growth curve were used for setting up RNA extraction samples. The cells were incubated at their corresponding temperature with continuous orbital shaking at 150 rpm until the end of lag-phase, mid-log phase, or stationary phase from the start of inoculation. Afterward, samples were removed and a 1:1 ratio of RNAprotect Bacteria Reagent (Qiagen #76506) was added followed by spinning down at 4° C. for 10 minutes at 4000 g. Supernatant was removed and the pellet re-suspended in 300 μL of RNAprotect and transferred into 2.0 mL Safe-Lock Tubes (Eppendorf #3101). The samples were then spun down once again at 4° C. for 10 minutes at 10000 g. Once the supernatant has been removed the samples were placed on ice and ready for RNA extraction. RNA extraction was done by Qiacube (Qiagen #9001292) set to the RNeasy Protect Bacteria Mini Kit protocol of bacterial cell pellet with enzymatic lysis. Tube A was prepared as described except with the addition of 150 mg/mL lysozyme (Sigma-Aldrich #L6876) and 20 mg/mL proteinase K (Roche #03115879001) all diluted in 1xTE buffer. RNA samples were subsequently quantified using Qubit RNA HS Assay Kit (Thermo Fisher Scientific #Q32852) and analyzed using a RNA 6000 Pico Kit (Agilent 5067-1513) in a 2100 Bioanalyzer (Agilent G2939A). RNA samples were either immediately used for RNA-Seq library preparation or stored long-term at −80° C.
(§4) RNA-Seq libraries were then produced from these samples using a slightly modified ScriptSeq v2 RNA-Seq Library Preparation Kit (Illumina 455A/22124) ensuring use of unique index primers through ScriptSeq Index PCR Primers (Sets 1-4) 48 rxns/set (Illumina #SSIP1234).

[2] = test system: steroid responsive genome island (SRGI); test: Whole transcriptome RNA-Seq of steroid treated P. simplex; format: cell-based, Pimelobacter simplex; conditions: P. simplex exposed to steroid vs solvent control, Log2 fold change
From the text: as §1, §2, §3, §4

Pimelobacter simplex = test: Solvent and steroid exposure growth curves
From the text: as §1
In order to properly determine the doubling time of the strain, growth curves were performed. All growth curves were done in 100 μL per well volumes in 96 well flat clear bottom black polystyrene TC-treated microplates which were individually wrapped with a lid and sterile (Corning #3603). Measurements were done by an Infinite M200 Pro (TECAN) spectrophotometer at the temperature suited for P. simplex. Readings were performed over 96 cycles of 15 minutes each at 600 nm absorbance with 25 flashes in a 3×3 (XY-Line) type reads per well. In between reads there was orbital shaking at 150 rpm frequency for a total of 10 minutes. In order to characterize the growth alone, a ½ serial dilution of 9 concentrations from 0.5-0.0020 OD600 nm were prepared in the respective media. Then each concentration was measured as previously described using a microplate reader (TECAN) and normalized against a media background control in technical triplicate. Afterward, an appropriate starting concentration of cells was chosen with a substantially long lag-phase, linear log phase, and a plateau of stationary-phase.
Once an appropriate starting cell concentration was chosen, a secondary growth curve was performed to test the toxicity levels of the solvents used to dissolve steroids of interest. Since the steroids used are heavily hydrophobic, they often need to be dissolved in organic solvents such as DMSO or ethanol which are toxic to bacteria at high concentrations. P. simplex was incubated under microplate reader conditions previously mentioned at a starting OD determined by the first growth curve with DMSO, ethanol, or H2O at ½ serial dilutions for a total of eight concentrations (50-0.39%) tested in technical triplicate. Two controls were included per solvent; a positive control without solvent and a media control which allowed for appropriate normalization. Solvent exposure growth curves allowed for choosing the maximum amount of solvent concentration that strains would sustain while maintaining relative viability in order to determine a range of steroid concentrations which could be used.
A tertiary growth curve was performed to test the toxicity levels of steroid specific to P. simplex. The strain was incubated under microplate reader conditions previously mentioned at a starting OD determined by the first growth curve and the highest solvent concentration corresponding to the steroid of interest with steroid at ½ serial dilutions for a total of seven concentrations tested in singlet. Testosterone, progesterone, 17β-estradiol, hydrocortisone, and aldosterone were all dissolved in ethanol while estrone was dissolved in DMSO. Three controls were included for each steroid; a positive control with the highest tolerable solvent concentration (%), a positive control with media, and a media control which allowed for normalization. Steroid exposure growth curves allowed for choosing the maximum amount of steroid concentration that P. simplex would sustain while maintaining relative viability.

PinR = PinR (Nocardioides simplex (Pimelobacter simplex), UniProt A0A0A1DUF2); test: Cross-reactivity assay of steroids using sensor 3; format: biochemical; conditions: for % cross-reactivity: relative to progesterone; for % cross-reactivity / P (slope of fit): sensor 3, HEPES 1×
Chain of PinR (A0A0A1DUF2 entry or part of it): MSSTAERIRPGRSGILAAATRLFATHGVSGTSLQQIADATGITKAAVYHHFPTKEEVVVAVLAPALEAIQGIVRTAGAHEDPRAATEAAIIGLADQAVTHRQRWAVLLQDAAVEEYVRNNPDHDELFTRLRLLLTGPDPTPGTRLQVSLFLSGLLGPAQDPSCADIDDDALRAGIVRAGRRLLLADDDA
Method: The cross-reactivity of progesterone regarding the different steroids was calculated with the following equation:
Description for a typical experiment, using a molar ratio of QD/TF/DNA=1/4/18.
50 uL of the sensor (QD/TF/DNA) was then splitted in 3×9 centrifuge tubes to which 10 uL of progesterone at the desired concentration is added. […] A 384 well plate was filled with 60 uL of each solution. The fluorescence intensity was monitored on a spectrofluorimeter from 535 nm to 800 nm exciting at 400 nm, equipped with a 450 nm long-pass filter in emission.

[3] = test system: Pimelobacter simplex PinR (AIY20223.2; SEQ ID NO: 1), his-tagged (AIY-his6); test: QD-FRET steroid sensor (QD-PinR + DNA-Cy5), steroid-induced TF-DNA unbinding; format: biochemical
Method: Fluorescent spectra were analyzed using MATLAB (Mathworks) and were fitted with a sum of 2 Gaussians (D=QD: FWHM=27 nm, λmax=607 nm; A=DNA-Cy5: FWHM=40 nm, λmax=669 nm). The area of each Gaussian was extracted and FD and FA are obtained respectively for the fluorescence of QD (donor) and Cy5 (acceptor).
Raw dose-response curves were obtained by plotting FA/FD as a function of the steroid concentration. Sensor output is the normalization of the fluorescent spectra of the donor and acceptor according to the following equation: […]
Non-normalized dose-response were fitted with Origin Pro 8 software with the non-linear equation: […]
The cross-reactivity of progesterone regarding the different steroids was calculated with the following equation: […]
CdSe/CdS/ZnS QDs were coated with a zwitterionic polymer bearing histamine anchoring functions (P1, SI). Once the hydrophobic QDs were transferred into H2O using a biphasic ligand exchange, his-tagged TFs were self-assembled on the QD surface to produce the QD-TF. Addition of the double stranded, Cy5-labeled TF-binding sequence completed probe assembly as the oligo binds to the TF in the absence of progesterone (PRG). The molar ratios of the QD, TF, and DNA in the sensor were controlled through the stoichiometric ratios of the mixed parts.
Two fluorescent spectra were recorded, one from the QDs and one from the Cy5 due to the FRET.
First, the DNA1 (most binding sequence) has been used to build the first biosensor, named sensor 1. For this sensor, a ratio of QD/TF/DNA of 1/4/18 was chosen. […] In order to homogenize the fluorescent signals in between batches and different sensor variations, FA/FD was normalized to give the signal output. Signal output is then plotted against PRG concentration to give a dose-response curve (FIG. 9C) This curve was fitted with the non-linear equation XX to obtain the half-maximal inhibitory concentration (IC50) (Table 13).
Description for a typical experiment, using a molar ratio of QD/TF/DNA=1/4/18. QDs in (275 uL, 0.15 uM in HEPES 1×, pH 7.6 with 1% BSA) were mixed with AIY-his6 (275 uL, 0.6 uM in HEPES 1× pH 7.6) at room temperature for 45 min. Then, the double-stranded DNA labelled with a Cy5 fluorescent probe at the 3′ and 5′ ends (275 uL, 2.7 uM in HEPES 1× pH 7.6) was added to the mixture. After 30 min, 220 uL of HEPES 1× pH 7.5 and 330 uL of 5× binding buffer (25 mM MgCl2, 25% glycerol, and 250 mg/L Invitrogen™ UltraPure™ Salmon Sperm DNA in Tris-HCl 0.1M) were added and the mixture is left 15 more min at RT.
50 uL of the sensor (QD/TF/DNA) was then splitted in 3×9 centrifuge tubes to which 10 uL of progesterone at the desired concentration is added. As such, the final concentration of QD/TF/DNA for the measurements is 25 nM/100 nM/450 nM. A 384 well plate was filled with 60 uL of each solution. The fluorescence intensity was monitored on a spectrofluorimeter from 535 nm to 800 nm exciting at 400 nm, equipped with a 450 nm long-pass filter in emission.

[4] = P. simplex, starting OD 0.005, constant solvent

| SMILES | upregulation of genes inside the SRGI (in words) [1] | upregulation of genes inside the SRGI [2] | highest steroid concentration exhibiting normal growth profile (Pimelobacter simplex; [4]) | IC50 (PinR) | % cross-reactivity (PinR) | P (slope of fit) (PinR) | highest steroid concentration exhibiting normal growth profile (Pimelobacter simplex) | effect on sensor binding/unbinding (in words) ([3]; QD:TF:oligo 1:4:6, [QD]=50 nM) | cross-reactivity (in words) ([3]; sensor 3 in HEPES 1×, 0 to 10 uM steroid) |
| --- | --- | --- | --- | --- | --- | --- | --- | --- | --- |
| C[C@]12CC[C@H]3[C@@H](CCC4=CC(=O)CC[C@@]43C)[C@@H]1CC[C@@H]2O [testosterone, Testosterone] | upregulation of genes inside the SRGI were observed | observed | 700 µM | – | – | – | – | – | – |
| C[C@]12CCC(=O)C=C1CC[C@@H]1[C@@H]2[C@@H](O)C[C@]2(C=O)[C@@H](C(=O)CO)CC[C@@H]12 [ALD, Aldosterone] | upregulation of genes inside the SRGI were observed | observed | – | 289 ± 36 nM | 20 ± 2% | 1.65 ± 0.28 | 175.00 µM | – | – |
| C[C@]12CC[C@@H]3c4ccc(O)cc4CC[C@H]3[C@@H]1CC[C@@H]2O [ESD, 17β-Estradiol] | not when exposed to 17β-estradiol and estrone | – | – | – | – | – | – | no impact on the sensor binding/unbinding | – |
| C[C@]12CC[C@@H]3c4ccc(O)cc4CC[C@H]3[C@@H]1CCC2=O [ESN, Estrone] | not when exposed to 17β-estradiol and estrone | – | 87.50 µM | – | – | – | – | – | No cross-reactivity was observed |
| C[C@]12CCC(=O)C=C1CC[C@@H]1[C@@H]2[C@@H](O)C[C@@]2(C)[C@H]1CC[C@]2(O)C(=O)CO [CRT, Hydrocortisone] | upregulation of genes inside the SRGI were observed | observed | – | 180 ± 19 nM | 33 ± 3% | 1.23 ± 0.13 | 21.88 µM | – | – |
